Data: US9540350B2, “1-substituted, 4-(substituted phenoxymethyl)-1,2,3-triazole compounds with antifungal properties and methods for preparation thereof” (FDC LIMITED, priority 2013, dated 2017)
≈ marks a conversion by molar mass, not a printed value. Like-named read-outs stand apart in the source and are kept apart here.

Columns and labels:
A. niger ATCC 16404 = assay: Antifungal susceptibility, broth dilution MIC (CLSI M38-A); type: cell-based; conditions: Aspergillus niger, read-out: Activity against organisms (MIC50) An01
Protocol: (§1) The compounds of Formula 1 were tested for antifungal activity against Candida albicans, C. glabrata, C. krusei, C. tropicalis, Cryptococcus neoformans, Aspergillus fumigatus, A. niger and Fusarium proliferatum. In vitro evaluation of antifungal activity was performed by determining the minimum inhibitory concentration (MIC) following standard methods (CLSI: Reference method for broth dilution antifungal susceptibility testing of yeasts; Approved standard, second edition M27-A2, 2002; CLSI: Reference method for broth dilution antifungal susceptibility testing of filamentous fungi; Approved standard M38-A, 2002). Anti-fungal susceptibility testing of these anti-fungal compounds was done by broth dilution method using RPMI 1640 medium with MOPS buffer. Known anti-fungal agent fluconazole was used as positive control. End points were determined after 48 hours visually and by using spectrophotometer wherever necessary. Different dilutions were tried and various sets of experiments performed. The activity parameters are enumerated in Table 4.

[1] = test system: F. proliferatum ATCC 10052; assay: as above; type: cell-based; conditions: Fusarium proliferatum, read-out: Activity against organisms (MIC50) Fp01
Protocol: as §1

A. fumigatus ATCC 46645 = assay: as above; type: cell-based; conditions: Aspergillus fumigatus, read-out: Activity against organisms (MIC50) Afm01
Protocol: as §1

C. neoformans ATCC 34664 = assay: Antifungal susceptibility, broth dilution MIC (CLSI M27-A2); type: cell-based, Cryptococcus neoformans; conditions: for MIC50: Cryptococcus neoformans, read-out: Activity against organisms (MIC50) Cn01
Protocol: as §1

C. albicans ATCC 24433 = assay: as above; type: cell-based; conditions: Candida albicans, read-out: Activity against organisms (MIC50) Ca01
Protocol: as §1

C. tropicalis ATCC 750 = assay: as above; type: cell-based, Candida tropicalis; conditions: for MIC50: Candida tropicalis, read-out: Activity against organisms (MIC50) Ct01
Protocol: as §1

C. krusei ATCC 6258 = assay: as above; type: cell-based, Candida krusei; conditions: Pichia kudriavzevii, read-out: Activity against organisms (MIC50) Ck01
Protocol: as §1

C. glabrata ATCC 90030 = assay: as above; type: cell-based, Candida glabrata; conditions: Nakaseomyces glabratus, read-out: Activity against organisms (MIC50) Cg01
Protocol: as §1

[2] = ATCC16404, A. niger ATCC 16404, broth dilution, RPMI 1640 with MOPS, 48 hours
[3] = ATCC10052, F. proliferatum ATCC 10052, broth dilution, RPMI 1640 with MOPS, 48 hours
[4] = ATCC46645, A. fumigatus ATCC 46645, broth dilution, RPMI 1640 with MOPS, 48 hours
[5] = ATCC34664, C. neoformans ATCC 34664, broth dilution, RPMI 1640 with MOPS, 48 hours
[6] = ATCC24433, C. albicans ATCC 24433, broth dilution, RPMI 1640 with MOPS, 48 hours
[7] = ATCC750, C. tropicalis ATCC 750, broth dilution, RPMI 1640 with MOPS, 48 hours
[8] = ATCC6258, C. krusei ATCC 6258, broth dilution, RPMI 1640 with MOPS, 48 hours
[9] = ATCC90030, C. glabrata ATCC 90030, broth dilution, RPMI 1640 with MOPS, 48 hours

| MIC50 (A. niger ATCC 16404; [2]) [µg/mL] | MIC50 [1, 3] [µg/mL] | MIC50 (A. fumigatus ATCC 46645; [4]) [µg/mL] | MIC50 (C. neoformans ATCC 34664; [5]) [µg/mL] | MIC50 (C. albicans ATCC 24433; [6]) [µg/mL] | MIC50 (C. tropicalis ATCC 750; [7]) [µg/mL] | MIC50 (C. krusei ATCC 6258; [8]) [µg/mL] | MIC50 (C. glabrata ATCC 90030; [9]) [µg/mL] | Compound | MIC50 (A. niger ATCC 16404; ATCC16404, 48 h) [µg/mL] | MIC50 ([1]; ATCC10052, 48 h) [µg/mL] | MIC50 (A. fumigatus ATCC 46645; ATCC46645, 48 h) [µg/mL] | MIC50 (C. neoformans ATCC 34664; ATCC34664, 48 h) [µg/mL] | MIC50 (C. albicans ATCC 24433; ATCC24433, 48 h) [µg/mL] | MIC50 (C. tropicalis ATCC 750; ATCC750, 48 h) [µg/mL] | MIC50 (C. krusei ATCC 6258; ATCC6258, 48 h) [µg/mL] | MIC50 (C. glabrata ATCC 90030; ATCC90030, 48 h) [µg/mL] | antifungal activity against Cryptococcus neoformans (in words) (C. neoformans ATCC 34664; summary statement) | antifungal activity against Candida tropicalis (in words) (C. tropicalis ATCC 750; summary statement) |
| --- | --- | --- | --- | --- | --- | --- | --- | --- | --- | --- | --- | --- | --- | --- | --- | --- | --- | --- |
| – | – | – | – | – | – | – | – | O=C(/C=C/c1ccc(Cl)cc1)c1ccc(O)cc1 [Compound 9A-4] | > 8 | > 8 | > 8 | > 8 | > 8 | > 8 | > 8 | 32 (≈ 124 µM) | – | – |
| 8 (≈ 33.3 µM) | > 32 | 16 (≈ 66.6 µM) | 32 (≈ 133 µM) | 32 (≈ 133 µM) | > 32 | > 32 | 16 (≈ 66.6 µM) | O=C(/C=C/c1ccc(O)cc1)c1ccc(O)cc1 [Compound 9A-5] | – | – | – | – | – | – | – | – | – | – |
| > 32 | > 32 | > 32 | > 32 | > 32 | > 32 | > 32 | > 32 | O=C(/C=C/c1cccs1)c1ccc(O)cc1 [Compound 10A-1] | – | – | – | – | – | – | – | – | – | – |
| > 8 | > 8 | > 8 | > 8 | > 8 | > 8 | > 8 | > 8 | COc1ccc(C(=O)/C=C/c2cccs2)cc1 [Compound 10A-2] | – | – | – | – | – | – | – | – | – | – |
| > 128 | > 128 | > 128 | 2 (≈ 6.53 µM) | 0.25 (≈ 0.816 µM) | 1 (≈ 3.27 µM) | 32 (≈ 104 µM) | 1 (≈ 3.27 µM) | OC(Cn1cncn1)(Cn1cncn1)c1ccc(F)cc1F [Fluconazole, reference compound] | – | – | – | – | – | – | – | – | weaker antifungal activity | weaker antifungal activity |

| Compound | MIC50 (A. niger ATCC 16404; [2]) [µg/mL] | MIC50 [1, 3] [µg/mL] | MIC50 (A. fumigatus ATCC 46645; [4]) [µg/mL] | MIC50 (C. neoformans ATCC 34664; [5]) [µg/mL] | MIC50 (C. albicans ATCC 24433; [6]) [µg/mL] | MIC50 (C. tropicalis ATCC 750; [7]) [µg/mL] | MIC50 (C. krusei ATCC 6258; [8]) [µg/mL] | MIC50 (C. glabrata ATCC 90030; [9]) [µg/mL] | MIC50 (A. niger ATCC 16404; ATCC16404, 48 h) [µg/mL] | MIC50 ([1]; ATCC10052, 48 h) [µg/mL] | MIC50 (A. fumigatus ATCC 46645; ATCC46645, 48 h) [µg/mL] | MIC50 (C. neoformans ATCC 34664; ATCC34664, 48 h) [µg/mL] | MIC50 (C. albicans ATCC 24433; ATCC24433, 48 h) [µg/mL] | MIC50 (C. tropicalis ATCC 750; ATCC750, 48 h) [µg/mL] | MIC50 (C. krusei ATCC 6258; ATCC6258, 48 h) [µg/mL] | MIC50 (C. glabrata ATCC 90030; ATCC90030, 48 h) [µg/mL] | antifungal activity against Cryptococcus neoformans (in words) (C. neoformans ATCC 34664; summary statement) | antifungal activity against Candida tropicalis (in words) (C. tropicalis ATCC 750; summary statement) |
| --- | --- | --- | --- | --- | --- | --- | --- | --- | --- | --- | --- | --- | --- | --- | --- | --- | --- | --- |
| CCCN1CCN(c2ccc(C(C)=O)cc2)CC1 [Compound 11A-1] | > 128 | > 128 | > 128 | > 128 | > 128 | > 128 | > 128 | > 128 | – | – | – | – | – | – | – | – | – | – |
| CCCCN1CCN(c2ccc(C(C)=O)cc2)CC1 [Compound 11A-2] | > 64 | > 64 | > 64 | > 64 | > 64 | > 64 | > 64 | > 64 | – | – | – | – | – | – | – | – | – | – |
